Among the data in PubChem BioAssay AID1963829 (Molecular Pharmacology Branch, DTP, NCI, 2024) are viability, T/C and IC50 values, retold here.

This test concerns 935938-334-R-J1-PDC complex spheroid viability. In words: Anticancer human tumor 935938-334-R-J1-PDC patient-derived small intestine adenocarcinoma cell line growth inhibition [POLQ]. Conditions: for viability, T/C: stronger effect = lower value. The protocol: Multicellular complex tumor spheroid response to Polymerase (POL) inhibitors (novobiocin, ART-558, RP6685) in combination with a variety of drugs and investigational agents in selected tumor cell lines
The POL inhibitors (novobiocin, ART-558, and RP6685) were evaluated both individually and in combination with standard of care and investigational anticancer small molecules within a complex spheroid model of solid tumors. . Complex spheroids include a stromal component modeled by human endothelial cells (HUVEC) and fibroblasts modeled by human mesenchymal stem cells (MSCs). The concentration ranges selected for each drug and investigational agent were based upon clinically achievable concentrations if the clinical Cmax of the agent was known.
Compounds. The drugs and investigational agents: novobiocin (NSC847541), ART-558 (NSC835418), RP-6685 (NSC848927), peposertib (NSC802822), ceralasertib (NSC780249), elimusertib (NSC800525), camonsertib (NSC841442), AZD-1390 (NSC803789), olaparib (NSC753686), talazoparib (NSC767125), rucaparib (NSC756644), sotorasib (NSC818433), MRTX-1133 (NSC836407), SN-38 (NSC673596), topotecan (NSC609699), epotoside (NSC141540), doxorubicin (NSC123127), gemcitabine (NSC613327), 5-fluorouracil (NSC19893), paclitaxel (NSC125973), vemurafenib (NSC761431), MSA-2 (NSC828583), SN-011 (NSC837082), adavosertib (NSC754352), prexasertib (NSC758257), carboplatin (NSC241240) and oxaliplatin (NSC266046), were obtained from the National Cancer Institute (NCI) Developmental Therapeutics Program Chemical Repository (21). The FDA-approved anticancer drug set is available from the Developmental Therapeutics Program at https://dtp.cancer.gov/organization/dscb/obtaining/. […] The stock solutions were prepared in dimethyl sulfoxide (DMSO, Sigma-Aldrich, St. Louis, MO, cat. D2650), except for the platinum compounds which were prepared in saline (Quality Biological, Gaithersburg, MD, cat. 114-055-101), at 800-fold the tested concentration and stored at -70 degrees C prior to their use. All drugs and investigational agents were tested over a range starting from a high concentration at or near the clinical Cmax and decreasing in half-log increments. If the clinical Cmax for an agent had not been determined, the highest concentration tested was 10 microM, except for SN-38, which was tested at a high concentration of 1 microM.
Cell Culture. All cells were maintained in an incubator at 37 degrees C and 5% CO2 with 95% humidity. The PDC lines were cultured according to standard operating procedures established by the NCI PDMR (https://pdmr.cancer.gov). Table 3 of the manuscript, lists the cell lines along with the number of the three cell types plated to form the mct-spheroids and media for tumor cell growth. After thawing, all PDC lines, except 997537-175-T-J1-PDC and 415267-285-R-J2-PDC, were cultured in Matrigel-coated flasks prepared with a working solution of 1X Ham's F-12 nutrient mix, without supplementation (Thermo Fisher Scientific, cat. 11765054), 100 U/mL penicillin-streptomycin (Thermo Fisher Scientific, cat. 15140122), and 2.5% Matrigel (Corning Inc., Corning, NY, cat. 354248) for the first three passages. The two PDC lines 997537-175-T-J1-PDC and 415267-285-R-J2-PDC were cultured on uncoated flasks. The 857933-349-R-J2-PDC line was cultured in 6C/Colon 1B media containing advanced DMEM/F-12 (Thermo Fisher Scientific, cat. 12634028), 10 mM HEPES (Thermo Fisher Scientific, cat. 15630080), 1X GlutaMAX supplement (Thermo Fisher Scientific, cat. 35050061), 0.1 mg/mL primocin (InvivoGen, San Diego, CA, cat. ant-pm-2), 10% defined fetal bovine serum, heat inactivated (HyClone Laboratories Inc., Logan, UT, cat. SH30070.03HI), 50% L-WRN conditioned media (ATCC, cat. CRL-3276), 1.25 mM N-Acetyl-L-cysteine (Sigma-Aldrich, cat. A9165), 10 mM nicotinamide (Sigma-Aldrich, cat. N0636), 1X B-27 supplement (Thermo Fisher Scientific, cat. 17504044), 1X N-2 supplement (Thermo Fisher Scientific, cat. […]

Where [1] appears, read: curve of first compound, second compound 0.0316 µM.
Where [2] appears, read: curve of first compound, second compound 0.1 µM.
The mark [3] stands for this setting: curve of first compound, second compound 0.316 µM.
[4] abbreviates: curve of first compound, second compound 1 µM.
The mark [5] stands for this setting: curve of first compound, second compound 3.16 µM.
[6] abbreviates: curve of first compound, second compound 10 µM.
Where [7] appears, read: second compound 0.0316 µM, first compound 0.0316 µM.
The mark [8] stands for this setting: second compound 0.0316 µM, first compound 0.1 µM.
Where [9] appears, read: second compound 0.0316 µM, first compound 0.316 µM.
[10] abbreviates: second compound 0.0316 µM, first compound 1 µM.
Where [11] appears, read: second compound 0.0316 µM, first compound 3.16 µM.
The mark [12] stands for this setting: second compound 0.0316 µM, first compound 10 µM.
[13] abbreviates: second compound 0.1 µM, first compound 0.0316 µM.
[14] abbreviates: second compound 0.1 µM, first compound 0.1 µM.
[15] abbreviates: second compound 0.1 µM, first compound 0.316 µM.
Where [16] appears, read: second compound 0.1 µM, first compound 1 µM.
The mark [17] stands for this setting: second compound 0.1 µM, first compound 3.16 µM.
[18] abbreviates: second compound 0.1 µM, first compound 10 µM.
[19] abbreviates: second compound 0.316 µM, first compound 0.0316 µM.
Where [20] appears, read: second compound 0.316 µM, first compound 0.1 µM.
Setting [21] is: second compound 0.316 µM, first compound 0.316 µM.
Where [22] appears, read: second compound 0.316 µM, first compound 1 µM.
Setting [23] is: second compound 0.316 µM, first compound 3.16 µM.
Where [24] appears, read: second compound 0.316 µM, first compound 10 µM.
Where [25] appears, read: second compound 1 µM, first compound 0.0316 µM.
The mark [26] stands for this setting: second compound 1 µM, first compound 0.1 µM.
The mark [27] stands for this setting: second compound 1 µM, first compound 0.316 µM.
Where [28] appears, read: second compound 1 µM, first compound 1 µM.
[29] abbreviates: second compound 1 µM, first compound 3.16 µM.
Setting [30] is: second compound 1 µM, first compound 10 µM.
Setting [31] is: second compound 3.16 µM, first compound 0.0316 µM.
The mark [32] stands for this setting: second compound 3.16 µM, first compound 0.1 µM.
[33] abbreviates: second compound 3.16 µM, first compound 0.316 µM.
The mark [34] stands for this setting: second compound 3.16 µM, first compound 1 µM.
Setting [35] is: second compound 3.16 µM, first compound 3.16 µM.
The mark [36] stands for this setting: second compound 3.16 µM, first compound 10 µM.
Where [37] appears, read: second compound 10 µM, first compound 0.0316 µM.
[38] abbreviates: second compound 10 µM, first compound 0.1 µM.
Setting [39] is: second compound 10 µM, first compound 0.316 µM.
The mark [40] stands for this setting: second compound 10 µM, first compound 1 µM.
[41] abbreviates: second compound 10 µM, first compound 3.16 µM.
Setting [42] is: second compound 10 µM, first compound 10 µM.

Structures are written as SMILES. Where “and” joins values, the source holds several entries; their conditions need not be identical. Identical values can stand only once.
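Also: spheroids exposed to drugs for seven days before viability read.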
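For viability, T/C in this document: 100% = DMSO vehicle control wells.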

For the compound `Cn1ncnc1[C@H]1c2n[nH]c(=O)c3cc(F)cc(c23)N[C@@H]1c1ccc(F)cc1`, the viability, T/C reads like this: (compound 0.000316 µM) 87.9% and 80.8% and 110%; (compound 0.001 µM) 83.2% and 90.4% and 112%; (compound 0.00316 µM) 82.5% and 83.7% and 85.8%; (compound 0.01 µM) 93.8% and 99.9% and 105%; (compound 0.0316 µM) 113% and 94.7% and 116%; (compound 0.1 µM) 99.4% and 96.1% and 76.1%. Besides, the IC50 (curve of compound) is more than 0.1 µM.
For the compound `COc1cc2cc(C(=O)CCC(=O)O)sc2cc1OC` + Nc1ccc(C#CCN(C(=O)Cc2ncc(C(F)(F)F)cc2C(F)(F)F)c2ccc(F)cc2)nn1, the IC50 by setting is: under setting [1], more than 10 µM; under setting [2], more than 10 µM; under setting [3], more than 10 µM; under setting [4], more than 10 µM; under setting [5], more than 10 µM; under setting [6], more than 10 µM. Moreover, the viability, T/C reads like this: under setting [7], 102%; under setting [8], 101%; under setting [9], 101%; under setting [10], 93.6%; under setting [11], 87.7%; under setting [12], 84.5%. For the same compound, the viability, T/C is 99% under setting [13]; 92% under setting [14]; 95.5% under setting [15]; 108% under setting [16]; 81.7% under setting [17]; 87% under setting [18]. Further, the viability, T/C is, setting by setting: under setting [19], 108%; under setting [20], 102%; under setting [21], 89.5%; under setting [22], 106%; under setting [23], 113%; under setting [24], 108%. For the same compound, the viability, T/C is 89.6% under setting [25]; 114% under setting [26]; 78.4% under setting [27]; 81.7% under setting [28]; 110% under setting [29]; 112% under setting [30]. Moreover, the viability, T/C is 108% under setting [31]; 90.9% under setting [32]; 84.1% under setting [33]; 105% under setting [34]; 103% under setting [35]; 81.1% under setting [36]. Besides, the viability, T/C reads like this: under setting [37], 101%; under setting [38], 95.8%; under setting [39], 101%; under setting [40], 103%; under setting [41], 82%; under setting [42], 74.5%.
In the case of `CC1COCCN1c1cc(-c2ccnn2C)c2ccnc(-c3ccn[nH]3)c2n1` (stereo not given), the viability, T/C (compound 0.0316 µM) is 82.6% and 80.7% and 109%; the viability, T/C (compound 0.1 µM) was 48.1% and 37.2% and 43.2%; the viability, T/C (compound 0.316 µM) was 23.7% and 26.6% and 25.3%; the viability, T/C (compound 1 µM) was 19.7% and 18.6% and 15.1%; the viability, T/C (compound 3.16 µM) is 17.2% and 15.3% and 17.5%; the viability, T/C (compound 10 µM) is 19.2% and 18.9% and 18.3%. The IC50 (curve of compound) was 0.0939 µM and 0.0731 µM and 0.0896 µM.
With `CCc1cc2c(N3CCc4c(cc(Cn5ccnc5)cc4-c4cn(C)nc4C(F)(F)F)C3=O)cc(C)nc2c(OC)n1` + Cc1cccc(N(C)C(=O)C2C(O)CCN2c2nc(C)cc(C(F)(F)F)c2C#N)c1, the IC50 by setting is: under setting [1], more than 10 µM; under setting [2], more than 10 µM; under setting [3], more than 10 µM; under setting [4], more than 10 µM; under setting [5], more than 10 µM; under setting [6], more than 10 µM. For the same compound, the viability, T/C was 77.4% under setting [7]; 59% under setting [8]; 74% under setting [9]; 58.9% under setting [10]; 69.4% under setting [11]; 56.7% under setting [12]. The viability, T/C runs as follows: under setting [13], 61.9%; under setting [14], 87%; under setting [15], 62.8%; under setting [16], 56.1%; under setting [17], 72%; under setting [18], 63%. The viability, T/C is, setting by setting: under setting [19], 74.7%; under setting [20], 62.6%; under setting [21], 62.4%; under setting [22], 54.8%; under setting [23], 65.5%; under setting [24], 51.6%. The viability, T/C was 91.2% under setting [25]; 61.9% under setting [26]; 55.6% under setting [27]; 60.9% under setting [28]; 51.7% under setting [29]; 53.2% under setting [30]. Further, the viability, T/C is 78.3% under setting [31]; 78.3% under setting [32]; 71.6% under setting [33]; 70.7% under setting [34]; 57.1% under setting [35]; 54.2% under setting [36]. Moreover, the viability, T/C was 72.7% under setting [37]; 65.8% under setting [38]; 58.9% under setting [39]; 49.5% under setting [40]; 60.3% under setting [41]; 50.8% under setting [42].
On to `CCc1cc2c(N3CCc4c(cc(Cn5ccnc5)cc4-c4cn(C)nc4C(F)(F)F)C3=O)ccnc2c(OC)n1`, for which the viability, T/C is 78.9% and 69.7% and 64.6% (compound 0.0316 µM); 56.2% and 71.7% and 57.9% (compound 0.1 µM); 70.9% and 68.9% and 69.7% (compound 0.316 µM); 61.2% and 62% and 60.9% (compound 1 µM); 64.3% and 76.9% and 69.6% (compound 3.16 µM); 57.7% and 50.2% and 58.4% (compound 10 µM). In addition, for the setting “curve of compound”, the IC50 was more than 10 µM.

One may read the viability, T/C as the result in the treated group divided by that in the control group, in per cent. The IC50 is the point on the concentration scale where inhibition reaches its midpoint.
